From patent US9879303B2, “Chromogenic glucuronidase substrates and uses” (Glycosynth Limited, priority 2013, dated 2018)
Counter-ions that a name gives are not always drawn.

System: E. coli clinical isolates
Assay: screen of strains on agar plates (CPS ID 3 or Columbia agar)
Assay type: cell-based
Set-up: key to colour: Red, Green, Black or Purple mean strong colour; Red, Green, Black or Purple mean strong colour; Red, Green, Black or Purple mean strong colour; Red, Green, Black or Purple mean strong colour; +/− means less colour than strong; Tr means a trace of colour, less than +/−; — means no colour
Conditions: for colour: 37° C. 18 hours
Source text: In order to obtain a fuller picture of the sensitivity of the substrates, they were screened with 100 different clinical isolates of E. coli in a liquid medium containing FAC. The isolates were chosen at random from the Microbiology Department, Freeman Hospital, Newcastle Upon Tyne, UK. The effectiveness of the new substrates was compared with three other media which all contained indoxyl-β-D-glucuronides. One was a commercial medium, CPS ID 3 (bioMérieux SA, Lyon, France). […] This medium was employed as a control. Among the β-D-glucuronidase producing strains of E. coli there is a large variation in the quantity of the enzyme produced and it is almost certain that the CPS ID 3 medium has been rigorously optimised to allow good growth of all the target organisms and maximum expression of the target enzymes. Therefore, two indoxyl glucuronides, X-β-D-glucuronide CHA salt and Rose-β-D-glucuronide CHA salt were also tested in a simple agar medium to allow a direct comparison of the sensitivity of these Indoxyl glucuronides when used in a medium that has not been optimised for the growth of the target organism. The comparison of the results for Rose-β-D-glucuronide and the CPS ID 3 medium was of particular significance as the commercial medium also uses Rose-β-D-glucuronide for the detection of E. coli. For consistency, the four glucuronides were all chosen as their CHA salts. As already stated, it is not anticipated that the salt form is critical to their performance. Currently. X-β-D-glucuronide is often used as either the CHA salt or the sodium salt. Brenner and colleagues [K. P. Brenner et al, Appl. Environ. Microbiol., 59, 3534-3544, (1993)] found no difference in the performance of the CHA and sodium salt forms with their application using indoxyl-β-D-glucuronide, neither in respect of colour development nor in the recovery of E. coli.
The two indoxyl glucuronides used produce insoluble endpoints following hydrolysis, as does the CPS ID 3 medium. It was therefore necessary to test these two substrates on agar plates. In contrast, catechol-β-D-glucuronide (1) and DHN-β-D-glucuronide (2b) give much more soluble endpoints best suited to liquid media and were therefore tested in a broth medium. Each broth was prepared using proteose peptone (Oxoid, Basingstoke, UK) (2 g), NaCl (1 g) and FAC (100 mg) in DI water (180 mL). This mixture was autoclaved and cooled to room temperature before being dispensed into bijoux (100×1.8 mL). Catechol β-D-glucuronide CHA salt (1) or DHN-β-D-glucuronide CHA salt (2b) (60 mg) were each dissolved in water (20 mL) and filtered to sterilize before being aseptically dispensed into successive bijoux (0.2 mL) containing the broth solution. The broth/substrate solutions were then inoculated with bacterial suspensions made up to 0.5 McFarland standard (2 μL per bijoux). X-β-D-glucuronide CHA salt (Glycosynth Ltd, Warrington, UK) (10 mg) was dissolved in NMP (200 μL). Rose-β-D-glucuronide CHA salt (Glycosynth Ltd, Warrington, UK) (20 mg) was dissolved in NMP (200 μL). These solutions were then added to Columbia agar (Oxoid, Basingstoke, UK) (100 mL) and inoculated with bacterial suspensions made up to 0.5 McFarland standard (1 μL). The plates and broths were incubated at 37° C. for 18 hours in air.

[1] = 100 E. coli strains after 18 h incubation

O=C(O)[C@H]1O[C@@H](Oc2c[nH]c3cc(Cl)ccc23)[C@H](O)[C@@H](O)[C@@H]1O [Rose-β-D-glucuronide CHA salt, 6-chloro-3-indolyl β-D-glucuronide]
% Sensitivity [1]: 81% | Negative strains [1]: 19 | Positive strains [1]: 81 | colour (E. coli 260262P): Red | colour (E. coli 260280Z): Red | colour (E. coli 260310H): Red | colour (E. coli 260313A): — | colour (E. coli 260316T): — | colour (E. coli 260327V): Red | colour (E. coli 260330Y): Red | colour (E. coli 260333P): — | colour (E. coli 260345F): Red | colour (E. coli 260348K): Red | colour (E. coli 260354W): Red | colour (E. coli 260364H): — | colour (E. coli 260370C): Red | colour (E. coli 260375E): Red | colour (E. coli 260390B): — | colour (E. coli 260396Z): Red | colour (E. coli 260398Q): Red | colour (E. coli 260400N): — | colour (E. coli 260401Q): Red | colour (E. coli 260402H): Red | colour (E. coli 260404W): Red | colour (E. coli 260405P): Red | colour (E. coli 260406A): — | colour (E. coli 260406Y): Red | colour (E. coli 260407F): Red | colour (E. coli 260408C): Red | colour (E. coli 260411Z): Red | colour (E. coli 260412Q): Red | colour (E. coli 260414H): Red | colour (E. coli 260415Y): Red | colour (E. coli 260416W): — | colour (E. coli 260417P): Red | colour (E. coli 260422Y): Red | colour (E. coli 260424P): Red | colour (E. coli 260425A): Red | colour (E. coli 260426F): Red | colour (E. coli 260428T): Red | colour (E. coli 260431N): Red | colour (E. coli 260432E): Red | colour (E. coli 260433H): Red | colour (E. coli 260434Y): Red | colour (E. coli 260435W): Red | colour (E. coli 260436P): Red | colour (E. coli 260437A): Tr. Red | colour (E. coli 260438F): Red | colour (E. coli 260439C): Red | colour (E. coli 260440S): Red | colour (E. coli 260441G): Red | colour (E. coli 260458Y): Red | colour (E. coli 260459W): Red | colour (E. coli 260463D): Red | colour (E. coli 260464G): Red | colour (E. coli 260471B): — | colour (E. coli 260478N): — | colour (E. coli 260479Q): Red | colour (E. coli 260480M): Red | colour (E. coli 260481J): Red | colour (E. coli 260483R): — | colour (E. coli 260485D): Red | colour (E. coli 260486L): Red | colour (E. coli 260492J): Red | colour (E. coli 260494B): Red | colour (E. coli 260495R): — | colour (E. coli 260497D): Red | colour (E. coli 260502G): Red | colour (E. coli 260503Z): Red | colour (E. coli 260504N): Red | colour (E. coli 260505Q): — | colour (E. coli 260506E): Red | colour (E. coli 260508Y): Red | colour (E. coli 260509W): Red | colour (E. coli 260510R): Red | colour (E. coli 260511X): Red | colour (E. coli 260514G): — | colour (E. coli 260515Z): Red | colour (E. coli 260521S): Red | colour (E. coli 260522Z): Red | colour (E. coli 260532S): Red | colour (E. coli 260533G): Red | colour (E. coli 260536Q): Red | colour (E. coli 260537E): — | colour (E. coli 260538H): — | colour (E. coli 260539Y): Red | colour (E. coli 260541R): Red | colour (E. coli 260545G): Red | colour (E. coli 260547N): Red | colour (E. coli 260548Q): Red | colour (E. coli 260549E): Red | colour (E. coli 260553X): — | colour (E. coli 260554D): Red | colour (E. coli 260555L): Red | colour (E. coli 260563B): Red | colour (E. coli 260564R): Red | colour (E. coli 260578D): — | colour (E. coli 2603121P): — | colour (E. coli 2604399E): Red | colour (E. coli O157 non-toxigenic): — | colour of positive colonies (in words): red colonies
